In paper PMC6838683, “Discovery of Human Signaling Systems: Pairing Peptides to G Protein-Coupled Receptors” (Cell, 2019):
Residues, ends and D or L forms follow the SMILES beside them.

Experiments:
GPR55 [1] = target: T1, GPR55 (Homo sapiens, UniProt Q9Y2T6); assay: Dynamic mass redistribution (DMR), concentration-response; type: cell-based; set-up: hIL-2Ra signal peptide (N); expressed in transfected cells; settings: mean
Method: (§1) 48 hr prior to parallel assaying, SNAP-tagged oGPCR cells were plated (10,000 cells/well) in fibronectin-coated 384-well Epic biosensor microplates (Corning) and poly-D-lysine coated white 384-well plates (for internalization assays). SNAP- GLP-1 receptor was plated alongside orphan receptor cells as an internal assay control for internalization assays. Receptor-expression was induced with 0.1 μg/ml doxycycline.
DMR assays provide a single integrated readout of ligand-dependent cellular response, utilizing an optical biosensor in specialized microplates to detect wavelength shifts of reflected light as it passes through the biosensor and the lower portion of the cell (∼150-200 nm). As a signal pathway agnostic approach, DMR assays are well-suited to the study of GPCRs ([Fang et al., 2008], [Schröder et al., 2011]). The mass redistribution response (Δ picometer (pm)) likely reflects a number of intracellular events, including cytoskeletal rearrangement, protein trafficking and receptor internalization. Orphan receptor-expressing cells were gently washed twice with assay buffer (HBSS with 1 mM CaCl2, 1 mM MgCl2, 20 mM HEPES, 0.01% pluronic F-68, pH 7.4) containing 0.1% DMSO and cells were equilibrated for 90 min at 22°C in the EPIC Benchtop (BT) System (Corning) to establish a stable DMR signal. After 3-5 min baseline recordings, peptides (10 μM) were added in duplicate wells using an electronic 384-channel Viaflo pipette (Integra Biosciences, Switzerland) and DMR responses were measured for 60 min at 22°C. 100 nM norepinephrine was included as an internal assay control to assess the cellular DMR response via endogenously-expressed adrenoceptors in the TREx 293 cells. Real-time data were processed using the BT to column converter MS-Excel macro (Corning) and analyzed in GraphPad Prism 7.0. DMR recordings in peptide screening experiments were buffer and solvent corrected and the area under the curve (AUC) was quantified. For subsequent validation experiments, peptides were diluted in assay buffer containing 0.1% DMSO and DMR assays were performed as above. […] Data represent mean ± standard error of the mean (SEM) from at least 3 biologically independent experiments.

GPR55 [2] = target: T1, GPR55; assay: Real-time receptor internalization (TR-FRET), concentration-response; type: cell-based; set-up: hIL-2Ra signal peptide (N); expressed in transfected cells
Method: as §1
A TR-FRET real-time internalization assay was used to examine peptide-dependent changes in orphan receptor localization as described previously ([Foster and Bräuner-Osborne, 2018]). Surface-expressed SNAP-tagged receptors were labeled with a cell-impermeable luminescent terbium cryptate (100 nM SNAP Lumi4-Tb; Cisbio, France) for 1 hr at 37°C. Cells were washed to remove excess terbium and incubated with fluorescein-O-acetic acid (100 μM; Sigma Aldrich) for 5 min at 37°C. Peptides were added as for DMR assays, and internalization responses were recorded for 60 min at 37°C using an EnVision 2104 Multimode plate reader (PerkinElmer). 100 nM GLP-1 was used as a positive control for SNAP-GLP1R internalization. Real-time internalization responses were calculated based on TR-FRET (excitation 340 nm; emission 520 nm and 615 nm), and were expressed as the ratio between donor (terbium) and acceptor (fluorescein) emission. For peptide screening analysis (both DMR and internalization assays), we calculated the area under the curve from the real-time traces. […] Validation experiments for receptor internalization were performed as above. Internalization data was processed in MS-Excel and area under the curve was used to generate concentration-response curves using GraphPad Prism 7.0. Data represent mean ± standard error of the mean (SEM) from at least 3 biologically independent experiments.

[3] = receptor GPR55, SEM and n (2-4), read-out: DMR assays pEC50 (converted)
[4] = receptor GPR55, mean, SEM and n (3-4), read-out: Internalization assays pEC50 (converted)
[5] = GPR55, SEM and n, read-out: pEC50, DMR (AUC) (converted)
[6] = GPR55, mean, SEM and n, read-out: pEC50, Internalization (AUC) (converted)

T1 sequence (Q9Y2T6 2-319 limits assumed): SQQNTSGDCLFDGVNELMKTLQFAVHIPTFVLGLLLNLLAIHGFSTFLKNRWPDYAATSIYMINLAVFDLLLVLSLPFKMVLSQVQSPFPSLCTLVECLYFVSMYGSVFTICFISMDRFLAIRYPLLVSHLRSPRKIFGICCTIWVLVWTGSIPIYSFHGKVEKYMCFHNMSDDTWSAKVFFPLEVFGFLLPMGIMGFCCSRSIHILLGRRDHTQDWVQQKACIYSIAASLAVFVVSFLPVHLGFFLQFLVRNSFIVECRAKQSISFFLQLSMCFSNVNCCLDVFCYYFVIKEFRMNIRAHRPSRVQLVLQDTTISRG

| SMILES | EC50 (GPR55 [1]; [3]) [µM] | EC50 (GPR55 [2]; [4]) [µM] | EC50 (GPR55 [2]; Internalization assays pEC50) [µM] | EC50 (GPR55 [1]; [5]) [µM] | EC50 (GPR55 [2]; [6]) [µM] |
| --- | --- | --- | --- | --- | --- |
| CC[C@H](C)[C@H](NC(=O)[C@H](CC(=O)O)NC(=O)[C@@H](NC(=O)[C@H](Cc1ccc(O)cc1)NC(=O)[C@@H](NC(=O)CNC(=O)[C@H](CC(N)=O)NC(=O)[C@@H](NC(=O)[C@H](CC(C)C)NC(=O)[C@H](Cc1ccc(O)cc1)NC(=O)[C@H](CC(=O)O)NC(=O)[C@H](CC(C)C)NC(=O)[C@H](CCCNC(=N)N)NC(=O)[C@H](CO)NC(=O)[C@H](Cc1ccc(O)cc1)NC(=O)[C@H](CCCNC(=N)N)NC(=O)[C@@H](N)CCCCN)[C@@H](C)CC)[C@@H](C)CC)C(C)C)C(=O)O [114 resynthesized] (H-KRYSRLDYLINGIYVDI-OH) | 3.89 | 15.8 | – | – | – |
| CC(C)C[C@H](NC(=O)[C@H](C)NC(=O)CNC(=O)[C@H](CC(C)C)NC(=O)[C@H](CCCNC(=N)N)NC(=O)[C@@H](N)CCCCN)C(=O)N[C@@H](Cc1ccccc1)C(=O)N[C@@H](CC(N)=O)C(=O)N1CCC[C@H]1C(=O)N[C@@H](Cc1ccc(O)cc1)C(=O)N[C@@H](Cc1ccccc1)C(=O)N[C@@H](CC(=O)O)C(=O)N1CCC[C@H]1C(=O)N[C@@H](CC(C)C)C(=O)N[C@@H](CCC(N)=O)C(=O)N[C@@H](Cc1c[nH]c2ccccc12)C(=O)N[C@@H](CCCCN)C(=O)N[C@@H](CC(N)=O)C(=O)N[C@@H](CO)C(=O)N[C@@H](CC(=O)O)C(=O)N[C@@H](Cc1ccccc1)C(=O)N[C@@H](CCC(=O)O)C(=O)O [143 resynthesized] (H-KRLGALFNPYFDPLQWKNSDFE-OH) | 3.16 | 6.31 | – | – | – |
| CC[C@H](C)[C@H](NC(=O)CNC(=O)[C@H](CC(=O)O)NC(=O)[C@H](CO)NC(=O)[C@@H](N)Cc1cnc[nH]1)C(=O)N[C@@H](Cc1ccccc1)C(=O)N[C@H](C(=O)N[C@@H](CC(=O)O)C(=O)N[C@@H](CO)C(=O)N[C@@H](Cc1ccc(O)cc1)C(=O)N[C@@H](CO)C(=O)N[C@@H](CCCNC(=N)N)C(=O)N[C@@H](Cc1ccc(O)cc1)C(=O)N[C@@H](CCCNC(=N)N)C(=O)N[C@@H](CCCCN)C(=O)N[C@@H](CCC(N)=O)C(=O)N[C@@H](CCSC)C(=O)N[C@@H](C)C(=O)N[C@H](C(=O)N[C@@H](CCCCN)C(=O)N[C@@H](CCCCN)C(=O)N[C@@H](Cc1ccc(O)cc1)C(=O)N[C@@H](CC(C)C)C(=O)N[C@@H](C)C(=O)N[C@@H](C)C(=O)N[C@H](C(=O)N[C@@H](CC(C)C)C(=O)NCC(=O)N[C@@H](CCCCN)C(=O)N[C@@H](CCCNC(=N)N)C(=O)N[C@@H](Cc1ccc(O)cc1)C(=O)N[C@@H](CCCCN)C(=O)N[C@@H](CCC(N)=O)C(=O)N[C@@H](CCCNC(=N)N)C(=O)N[C@H](C(=O)N[C@@H](CCCCN)C(=O)N[C@@H](CC(N)=O)C(=O)N[C@@H](CCCCN)C(N)=O)C(C)C)C(C)C)C(C)C)[C@@H](C)O [168.1 (Phoenix)] | 0.148 | – | 0.000123 | – | – |
| CC(C)C[C@H](NC(=O)[C@H](C)NC(=O)CNC(=O)[C@H](CC(C)C)NC(=O)[C@H](CCCNC(=N)N)NC(=O)[C@@H](N)CCCCN)C(=O)N[C@@H](Cc1ccccc1)C(=O)N[C@@H](CC(N)=O)C(=O)N1CCC[C@H]1C(=O)N[C@@H](Cc1ccc(O)cc1)C(=O)N[C@@H](Cc1ccccc1)C(=O)N[C@@H](CC(=O)O)C(=O)N1CCC[C@H]1C(=O)N[C@@H](CC(C)C)C(=O)N[C@@H](CCC(N)=O)C(=O)N[C@@H](Cc1c[nH]c2ccccc12)C(=O)N[C@@H](CCCCN)C(=O)N[C@@H](CC(N)=O)C(=O)N[C@@H](CO)C(=O)N[C@@H](CC(=O)O)C(=O)N[C@@H](Cc1ccccc1)C(=O)N[C@@H](CCC(=O)O)C(=O)O [Chgb (511-532)] (H-KRLGALFNPYFDPLQWKNSDFE-OH) | – | – | – | 2.4 | 4.68 |
| CC[C@H](C)[C@H](NC(=O)[C@H](CC(=O)O)NC(=O)[C@@H](NC(=O)[C@H](Cc1ccc(O)cc1)NC(=O)[C@@H](NC(=O)CNC(=O)[C@H](CC(N)=O)NC(=O)[C@@H](NC(=O)[C@H](CC(C)C)NC(=O)[C@H](Cc1ccc(O)cc1)NC(=O)[C@H](CC(=O)O)NC(=O)[C@H](CC(C)C)NC(=O)[C@H](CCCNC(=N)N)NC(=O)[C@H](CO)NC(=O)[C@H](Cc1ccc(O)cc1)NC(=O)[C@H](CCCNC(=N)N)NC(=O)[C@@H](N)CCCCN)[C@@H](C)CC)[C@@H](C)CC)C(C)C)C(=O)O [MANSC (415-431)] (H-KRYSRLDYLINGIYVDI-OH) | – | – | – | 3.09 | 13.5 |
